Assay results from paper PMC3774728, “Identification of the Plant Compound Geraniin as a Novel Hsp90 Inhibitor” (PLoS ONE, 2013).

Key:
recombinant Hsp90α = target: T1, recombinant Hsp90α (Homo sapiens, UniProt P07900); test: Surface plasmon resonance binding to immobilized Hsp90α; conditions: SPR, immobilized Hsp90α, 25°C, single-site bimolecular model, 0.025-1 µM; read-out: KD
T1 construct: purchased Assay Designs (Ann Arbor, MI, USA)
Method: SPR analyses were carried out according to our previously published procedures, [23]. Briefly, SPR analyses were performed using a Biacore 3000 optical biosensor equipped with research−grade CM5 sensor chips (GE Healthcare). Using this platform, two separate recombinant Hsp90α surfaces, a BSA surface and one unmodified reference surface were prepared for simultaneous analyses. Proteins (100 µg mL^−1 in 10 mM CH3COONa, pH 5.0) were immobilized on individual sensor chip surfaces at a flow rate of 5 µL min^−1 using standard amine−coupling protocols to obtain densities of 8–12 kRU. Polyphenols, as well as 17-AAG and hardwickiic acid (HA), were dissolved in 100% DMSO to obtain 4 mM solutions, and diluted 1∶200 (v/v) in PBS (10 mM NaH2PO4, 150 mM NaCl, pH 7.4) to a final DMSO concentration of 0.5%. […] Binding experiments were performed at 25°C, using a flow rate of 50 µL min^−1, with 60 s monitoring of association and 300 s monitoring of dissociation. Simple interactions were suitably fitted to a single−site bimolecular interaction model (A+B = AB), yielding a single K D. Sensorgram elaborations were performed using the BIAevaluation software provided by GE Healthcare.
Putative interactions of different plant-derived phenolic compounds with Hsp90α were evaluated by a SPR-based approach.

[1] = target: T2, Hsp90α chaperone activity (Homo sapiens, UniProt P07900); test: Citrate synthase thermal-induced aggregation assay (chaperone activity); type: biochemical; conditions: 0.075 µM CS, 0.075 µM Hsp90α, 0.3 µM ATP, four-fold molar excess (0.3 µM) compound, 43°C
T2 construct: purchased Assay Designs (Ann Arbor, MI, USA)
Method: Chaperone activity was evaluated by monitoring the thermal−induced aggregation of citrate synthase (CS) (0.075 µM), as reported elsewhere, in the absence or presence of a stoichiometric amount of Hsp90α and 0.3 µM ATP, and with or without a four−fold molar excess of each testing compound. Aggregation was initiated by unfolding CS incubating the protein in 40 mM HEPES–KOH, pH 7.5 at 43°C. Aggregation was monitored by measuring light scattering at right angles with the Perkin Elmer LS 55 fluorimeter in stirred and thermostatted quartz cells. Both the emission and excitation wavelengths were set at 500 nm, while the band–pass was 2 nm. Kinetics traces reported are the averages of two separate measurements.
Figure 3 Inhibition of Hsp90α activity. ATPase activity of the chaperone was evaluated in the presence of different concentrations of geraniin, 17-AAG and HA (A). Data are reported as the residual ATPase activity (%) compared to that observed for an untreated sample. Data are the mean of three independent experiments performed in triplicate and were analyzed by t test (HA vs testing compounds): The error bar represents the standard deviation of nine measurements, while * indicates significance at P<0.01. Aggregation kinetics of citrate synthase (CS) at 43°C determined by light scattering (B). […]

Jurkat cells = test: Cell cycle and hypodiploidy by flow cytometry (PI), Jurkat; type: cell-based, human; conditions: 24 h, geraniin 0.7 µM, 17-AAG 10 µM
Method: (§1) Cell DNA content was measured by propidium iodide (PI) incorporation into permeabilized cells, as described by Nicoletti et al.. Briefly, the cells were harvested after geraniin or 17-AAG treatments were washed with cold PBS and incubated with a PI solution (0.1% sodium citrate, 0.1% Triton X-100 and 50 µg mL^−1 of prodium iodide, Sigma-Aldrich, 10 µg/ml Rnase A) for 30 min at room temperature. Data from 10.000 events per sample were collected by a FACScalibur flow cytometer (Becton Dickinson, San José, CA) and cellular debris was excluded from analysis by raising the forward scatter threshold. The percentage of cells in the sub G0/G1 phase, apoptotic fraction, was quantified using CellQuest software (Becton Dickinson). The distribution of cells in G0/G1, S, G2/M phases was determined using ModFit LT cell cycle analysis software (Becton Dickinson). Results were expressed as a mean ± SD of three experiments performed in triplicate.
(§2) Figure 6 Effects of geraniin and 17-AAG on cell cycle progression. Percentage of cell cycle stages was analyzed by flow cytometry, (A) PI-stained viable Jurkat cells treated with DMSO, 0.7 µM geraniin or 10 µM 17-AAG for 24 h.

HeLa cells = test: Cell cycle and hypodiploidy by flow cytometry (PI), HeLa; type: cell-based, human; conditions: 24 h, geraniin 5 µM, 17-AAG 0.2 µM
Method: as §1, §2

[2] = system: PHA-stimulated proliferating PBMC; test: Hypodiploidy/necrosis by flow cytometry, PHA-stimulated PBMC; type: cell-based, human; conditions: untreated cells 1.5±0.8%
Method: Jurkat and HeLa (epithelial carcinoma) cells, obtained from Cell Bank in GMP-IST (Genova, Italy) were maintained in RPMI 1640 medium or Dulbecco’s modified Eagle medium (DMEM), respectively, supplemented with 10% (v/v) FBS, 2 mM L−glutamine and antibiotics (100 U mL^−1 penicillin, 100 µg mL^−1 streptomycin) purchased from Invitrogen (Carslbad, CA, USA), at 37°C in humidified atmosphere with 5% CO2. To ensure logarithmic growth, cells were subcultured every two days. As control cells, human peripheral blood mononuclear cells (PBMC) were isolated from buffy coats of healthy donors (kindly provided by the Blood Center of the Hospital of Battipaglia, Salerno, Italy) by using standard Ficoll−Hypaque gradients. Freshly isolated PBMC contained 92.8±3.1% live cells. Proliferation of PBMC was induced by phytohemagglutinin (PHA) (10 µg mL^−1). […]
Cell DNA content was measured by propidium iodide (PI) incorporation into permeabilized cells, as described by Nicoletti et al.. […] The percentage of cells in the sub G0/G1 phase, apoptotic fraction, was quantified using CellQuest software (Becton Dickinson). The distribution of cells in G0/G1, S, G2/M phases was determined using ModFit LT cell cycle analysis software (Becton Dickinson). Results were expressed as a mean ± SD of three experiments performed in triplicate.

- Kd (recombinant Hsp90α): 415 ± 27 nM
- effect on citrate synthase aggregation kinetics in the presence of Hsp90α [1]: the curve slope clearly increased
Compound: O=C1O[C@H]2[C@@H]3OC(=O)c4cc(O)c(O)c(O)c4-c4c(cc(O)c(O)c4O)C(=O)OC[C@H]2O[C@@H](OC(=O)c2cc(O)c(O)c(O)c2)[C@@H]3OC(=O)c2cc(O)c(O)c3c2[C@@H]2C1=CC(=O)[C@](O)(O3)C2(O)O [Compound 54, geraniin]
- cell cycle arrest (Jurkat cells): G2/M arrest
- percentage of cells with hypodiploid nuclei (Jurkat cells): 9.75±1.02%
- cell cycle arrest (HeLa cells): G2/M arrest
- percentage of cells with hypodiploid nuclei (HeLa cells): 16.2±0.7%
- levels of hypodiploidy/necrosis [2]: 2.6±1.3%
